Data published in patent US20190298717A1 (BOARD OF REGENTS, THE UNIVERSITY OF TEXAS SYSTEM, priority 2016, published 2019).
Entries after “also recorded” stand apart in the source; their conditions may differ.

Assays:
[1] = test system: HEKTauP301S cells; conditions: 20 μM Aβ (1-42), 5 and 10 μM, 24 hours
Description: The data represents as percent cell viability normalized to DMSO treated control cells. The values are mean percent of two biological experiments performed in six replicates. […] After treatment Western blot analysis was performed to check the levels of p-GSK3β and total GSK3β in addition to p-Tau and total Tau level. […] Densitometry values were normalized using actin as internal control. All western blot analysis (FIG. 19B, 19C) values are mean±SD from three biological independent experiments (shown in the right panel).
To mimic the cellular environment of AD disease a stable HEK293 cell line (HEKTauP301S) overexpressing mutated full length Tau (P301S) was used.

[2] = test system: MEF cells; conditions: 10 μM, 24 and 48 hours
Description: Cells were then subjected to confocal analysis and mRFP-GFP (yellow representing autophagosome) and mRFP (red puncta representing autophagolysosomes) were recorded; scale bar, 10 gtm. […] The co-localization of mRFP with GFP signal from tfLC3 puncta was measured using ImageJ software.
To further validate the present invention autophagic flux using mRFP-GFP tandem fluorescent-tagged LC3 (tfLC3) was measured. tfLC3 protein is one of the most widely used markers for the detection of autophagosomes and autophagolysosomes, two key structures in macroautophagy (8). tfLC3 was knocked-in to monitor autophagic flux in MEF cells based on different pH stabilities of GFP and mRFP (9). In autophagosome environment both mRFP and GFP tags of tfLC3 can fluoresce so autophagosome appear as yellow puncta (green GFP+red mRFP). […] Rapamycin was used as a positive control.

[3] = test system: neuropeptide Y, synaptotagmin; conditions: data not shown
Text: Neuronal plasticity, defined as the brain's ability to form new neural connections, allows the neurons to compensate for injury and disease and to adjust their activities in response to new situations or changes in their environment.

[4] = test system: SH-SY5Y cells; conditions: 0, 10, 20 μM, 3 days
Description: Cells were stained by TMRE to tag active mitochondria. Florescence signal was quantified by Flow Jo software. […] ATP levels were measured by bioluminescent detection of luciferase activity. All data are presented normalized to cell number.
(§1) The mitochondrial membrane potential was measured as an indicator of cellular energetics and ATP content.

[5] = test system: GCLc, GCLm, HO-1, and NQO-1; conditions: SH-SY5Y, 24 h
Description: GSH is regulated by the rate-limiting enzyme GCL consisted of GCLc and GCLm subunits. […] The inventors then used extracellular lactate dehydrogenase cytotoxicity assay to measure cell survival.
(§2) Western Blot Analysis. Protein expression was determined by Western blot analysis. Equal amount of protein from each sample was run in Tris-glycine SDS PAGE gel, followed by transferring to PVDF membrane. After blocking the membrane with 5% milk for 1 hour at room temperature, the membrane was incubated further for 2 hours with antibodies specific for target proteins: Nrf2, pNrf2(S40) from Novus (Littleton, Colo.); Keap1, HO-1, NQO1, GCLc, GCLm and lamin B1 from Cell Signaling (Danvers, Mass.); GAPDH from Santa Cruz (Dallas, Tex.); β-Actin from Thermo Fisher (Waltham, Mass.). The membrane was subsequently incubated with species-specific HRP-conjugated secondary antibody followed by incubation with chemiluminescence substrate and imaging. The band intensity of each of the target proteins was quantified using ImageQuant software (GE Healthcare, Sweden). Western blot analysis on worm lystaes was done similarly. […] Equal amounts of protein were run on the gel and SKN-1 protein level was detected using anti-GFP antibody.

[6] = test system: SH-SY5Y cells; conditions: 72 hours
Description: Mitochondrial mass was measured by staining the cells with Mito tracker deep red followed by flow cytometric analysis. […] DNA copy number of mitochondria was calculated by amplification of ND5 or m-RNR, as mitochondrial genes, relative to LPL as a nucleus specific DNA sequence. Relative expression values were normalized to untreated cells.
Several parameters directly linked to intact mitochondria itself, namely mitochondrial mass, mtDNA copy number (as representatives of mitochondrial biogenesis), mitochondrial membrane potential (reporter of mitochondrial function) and ATP level as a signature of energetics (FIGS. 11A to 11E) were measured. […] Isoniazid (20 μM) and resveratrol (20 μM) were used as negative and positive controls respectively). Mitochondrial mass was also evaluated in parallel by measuring the relative amount of mitochondrial to nuclear DNA. Two different set of primers (ND5 and m-RNR) were used to amplify mt-DNA in qPCR reactions (FIG. 11B).
as §1

[7] = test system: C. elegans; experiment: Rotenone stress test in worms; assay type: in vivo
Text: The inventors again used rotenone to elicit PD-like changes.
Rotenone stress test. […] After 3 days young adult worms were transferred to fresh NGM plates either preloaded with rotenone alone or rotenone plus any of the abovementioned compounds. Every worm was subjected to prodding test with a worm pick every day. A worm was scored as dead when not responding to three repeated proddings. Survival curve was plotted using Prism 7.

[8] = test system: Nrf2
Description: The inventors quantified Nrf2 protein in treated cells as a first step towards validating the prediction of the Nrf2 pathway.
Nrf2 phosphorylation on serine 40 is a regulatory modification required for Nrf2 translocation to nucleus and downstream protein activation.
as §2
Cell Fractionation. Nuclear and cytoplasmic fractions were separated using the protocol and NE-PER Nuclear and Cytoplasmic Extraction Reagents provided by […]. Briefly, the cells were harvested and washed with ice-cold PBS buffer. The cells were resuspended in ice-cold CER-I buffer and incubated on ice for 10 minutes, followed by addition of CER-II buffer and incubation for one more minute on ice. The lysate was centrifuged at 16,000 g for 5 minutes. The supernatant was the cytoplasmic fraction. The pellet obtained was lysed in ice-cold NER buffer to obtain nuclear protein fractions.

[9] = test system: SH-SY5Y cells; experiment: Protein carbonyl assay (2,4-DNPH) in H2O2-stressed cells; assay type: cell-based, human; conditions: 100 μM H2O2 24 h, 10 and 25 μM compound
Description: To generate intracellular aldehydes, the inventors treated human neuroblastoma cell line (SH-SY5Y) with 100 μM hydrogen peroxide (H2O2) for 24 h. Carbonyl groups were quantified using 2,4-DNPH (dinitrophenylhydrazine) assay.
Protein carbonyl Assay. Protein carbonyls were measured using a commercially available kit (MAK094; Sigma-Aldrich, St. Louis, Mo.). Cells were first lysed in lysis buffer provided by the kit.
Following centrifugation, 100 μL of supernatant was added to 10 μL of 10% […] solution, was incubated at room temperature for 10 min and re-centrifuged to remove interfering nucleic acids. Carbonyl content of supernatant was determined by adding 2, 4-dinatrophenylhydrazine followed by detection of dinitrophenyl hydrazine adduct at 375 nm in a 96 well plate reader. The protein content of each sample was determined using a bicinchoninic acid (BCA) assay, Thermo Fischer, Waltham, Mass.).

NNc1nncc2ccccc12 [Hydralazine]
viability under Aβ (1-42)-induced toxicity [1]: protects Tau-overexpressing cells
autophagic flux (autophagosomes, autophagolysosomes) [2]: induction of autophagic flux
increase of expression of neuropeptide Y [3]: 3 fold
increase of expression of synaptotagmin [3]: ~2.5 fold
total ATP content [4]: elevated ATP level in a concentration dependent manner
HO-1 upregulation [5]: 30%
NQO-1 upregulation [5]: 40%
expression of GCLc, GCLm, HO-1, and NQO-1 ([5]; Western blotting): significant increase in expression
mitochondrial mass ([6]; 0, 10, 20 μM): sharp increase in mitochondrial mass
increase in mt-DNA copy number ([6]; 20 μM): more than 50%
protection against rotenone-induced death ([7]; 100 μM pretreatment, rotenone 50 μM): protected from rotenone; also recorded: significantly protected
protection against rotenone in skn-1(zu135) mutant compared to N2 ([7]; skn-1(zu135)): sharply decreased
increase of phosphorylation of Nrf2 on serine 40 in the nuclear compartment ([8]; SH-SY5Y): 25%
phosphorylation of cytosolic Nrf2 ([8]; SH-SY5Y): no change was observed
increase in Nrf2 level compared to untreated cells ([8]; SH-SY5Y, 10 μM, 24 h, Western blotting): about 20%
cytosolic Nrf2 fraction ([8]; SH-SY5Y, 10, 20 μM): remained unchanged
nuclear localization of Nrf2 ([8]; SH-SY5Y, 10, 20 μM): significantly increased
protein carbonyls [9]: significantly reduced the carbonyl level
protein carbonyls ([9]; listed as hydralazine): reduced protein carbonyls significantly
